According to article doi:10.1101/2022.02.24.481826v2 (biorxiv, 2022):

Target: T1, AMPK4 (Arabidopsis thaliana, UniProt O82514)
T1 sequence (O82514 2-246): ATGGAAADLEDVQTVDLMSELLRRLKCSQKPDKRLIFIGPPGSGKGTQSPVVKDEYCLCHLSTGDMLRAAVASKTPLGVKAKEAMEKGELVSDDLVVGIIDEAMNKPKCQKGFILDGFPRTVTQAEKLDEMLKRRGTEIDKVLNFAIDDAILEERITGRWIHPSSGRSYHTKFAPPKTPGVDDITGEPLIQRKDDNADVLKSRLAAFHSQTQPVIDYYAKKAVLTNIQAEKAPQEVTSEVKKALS
Experiment: coupled pyruvate kinase / lactate dehydrogenase assay, […] nm
Type: biochemical
Conditions: 1 mM AMP, 1 mM ATP

coupled pyruvate kinase / lactate dehydrogenase assay, 340 nm: Analogous data for AMPK4
Compound: Nc1ncnc2c1ncn2[C@@H]1O[C@H](COP(=O)(O)O)[C@@H](O)[C@H]1O [AMP]
